# From BindingDB's records for doi:10.1016/j.bmcl.2021.128263 (A*Star, 2021)
# Target: Replicase polyprotein 1ab (Severe acute respiratory syndrome coronavirus, UniProt P0C6X7)
# Assay: Literature assay
Compound,IC50,Ki
CC(C)C[C@H](NC(=O)[C@@H](NC(=O)OCc1ccccc1)C(C)C)C(=O)N[C@@H](C[C@@H]1CCNC1=O)C(=O)C(=O)N(C)C [peptidomimetic coronavirus 3CLpro inhibitors 17],7 nM,
CC(C)C[C@H](NC(=O)[C@@H](NC(=O)OCc1ccccc1)C(C)C)C(=O)N[C@@H](C[C@@H]1CCNC1=O)C(=O)c1nc2ccccc2s1 [peptidomimetic coronavirus 3CLpro inhibitors 2i],1700 nM,
CC(C)C[C@H](NC(=O)OCc1ccccc1)C(=O)N[C@@H](C[C@@H]1CCNC1=O)C(=O)c1nc2ccccc2s1 [peptidomimetic coronavirus 3CLpro inhibitors 25c],210000 nM,
CC(OC(C)(C)C)[C@H](NC(=O)OCc1ccccc1)C(=O)N[C@@H](CC1CCCCC1)C(=O)N[C@H](C=O)CC1CCNC1=O (some centres undefined) [TG-0205221],,53 nM
